From PubChem BioAssay (NCI) come the findings set out here.

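48-hour exposure; five concentrations; linearly interpolated endpoints. Here, GI50 denotes the concentration required for 50% inhibition of growth. Definition used: TGI = concentration required for complete inhibition of growth.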

Among the test systems are NCI/ADR-RES ovarian; MOLT-4 leukemia; OVCAR-8 ovarian; SF-295 CNS; TK-10 renal; SNB-75 CNS; SK-MEL-2 melanoma; U251 CNS; SK-MEL-5 melanoma; SR leukemia.
Common to all, as to assay: NCI tumour cell line growth inhibition, 48 h

Consider `CCN(CC)c1ccc(/C=C/C=C2\NC(=O)NC2=O)cc1`, for which the GI50 in the test on NCI/ADR-RES ovarian is 1.12 µM; in the test with MOLT-4 leukemia, 6.49 µM; in the test with OVCAR-8 ovarian, 6.21 µM; in the test with SF-295 CNS, 1.54 µM; in the test on TK-10 renal, 6.54 µM; with SNB-75 CNS it was 2.67 µM. The GI50 with SK-MEL-2 melanoma was 3.5 µM; in the test on U251 CNS, 3.22 µM; in the test on SK-MEL-5 melanoma, 1.17 µM; in the test on SR leukemia it was 0.446 µM. Moreover, the TGI is 28.5 µM in the test with NCI/ADR-RES ovarian; greater than 100 µM in the test with MOLT-4 leukemia; 66.6 µM with OVCAR-8 ovarian; greater than 100 µM in the test on SF-295 CNS; 64.2 µM with TK-10 renal; 79.5 µM in the test with SNB-75 CNS. The TGI with SK-MEL-2 melanoma was 53.6 µM; in the test on U251 CNS, 17.9 µM; with SK-MEL-5 melanoma, 13.7 µM; in the test on SR leukemia it was greater than 100 µM.

In the case of `CCN(Cc1c(Cl)cccc1Cl)c1ccc(CO)c(Cl)c1`, the GI50 was 11.8 µM with NCI/ADR-RES ovarian; 14.8 µM in the test with MOLT-4 leukemia; 13.7 µM with OVCAR-8 ovarian; less than 0.0238 µM in the test with TK-10 renal; 11 µM with SNB-75 CNS; 0.795 µM in the test on SK-MEL-2 melanoma. In addition, the figures for the GI50 with U251 CNS, with SK-MEL-5 melanoma and with SR leukemia were 0.372 µM, 2.86 µM and 12.8 µM, respectively. Besides, the TGI in the test on NCI/ADR-RES ovarian amounted to 27.3 µM; in the test with MOLT-4 leukemia, 35.7 µM; in the test on OVCAR-8 ovarian, 29.7 µM; in the test with SF-295 CNS it was 1.37 µM; in the test with TK-10 renal, 0.0592 µM; with SNB-75 CNS it was 25.3 µM. The TGI in the test on SK-MEL-2 melanoma turned out to be 13.4 µM; with U251 CNS it was 15.3 µM; in the test with SK-MEL-5 melanoma, 19.5 µM; in the test with SR leukemia, 36.7 µM.

As for `CC(=C/c1ccccc1)/C=C1/NC(=S)N(/C=C2\C(=O)Oc3ccccc3C2=O)C1=O`, the TGI in the test on NCI/ADR-RES ovarian, with MOLT-4 leukemia, in the test on OVCAR-8 ovarian, in the test with SF-295 CNS, in the test on TK-10 renal and with SNB-75 CNS was greater than 100 µM in each case. Besides, the TGI with SK-MEL-2 melanoma was greater than 100 µM; in the test with U251 CNS, greater than 100 µM; in the test with SK-MEL-5 melanoma it was greater than 86.9 µM; in the test with SR leukemia, greater than 100 µM.

Consider `O=C1C(Cl)=C(Nc2cccc(C(F)(F)F)c2)C(=O)N1Cc1ccc(Cl)cc1`, for which the GI50 in the test with NCI/ADR-RES ovarian was less than 0.0431 µM; in the test with MOLT-4 leukemia, 0.119 µM; in the test on OVCAR-8 ovarian it was 0.699 µM; with TK-10 renal, 1.08 µM; with SNB-75 CNS it was 1.07 µM; in the test on SK-MEL-2 melanoma it was 4.02 µM. The figures for the GI50 with U251 CNS, in the test with SK-MEL-5 melanoma and with SR leukemia were 0.0371 µM, 0.621 µM and less than 0.0219 µM, respectively. The TGI with NCI/ADR-RES ovarian is 12.3 µM; with MOLT-4 leukemia, greater than 100 µM; with OVCAR-8 ovarian, 23.3 µM; with SF-295 CNS, 16.2 µM; in the test with TK-10 renal, 19.3 µM; with SNB-75 CNS, 20 µM. Moreover, the TGI in the test with SK-MEL-2 melanoma was greater than 25.9 µM; in the test with U251 CNS, 13.1 µM; with SK-MEL-5 melanoma, 13.5 µM; with SR leukemia, greater than 65.3 µM.

For the compound `O=c1oc2c(C(F)(F)F)cccc2cc1-c1csc(Nc2ccc(OCCF)cc2)n1`, the GI50 with NCI/ADR-RES ovarian is 0.0401 µM; in the test with MOLT-4 leukemia, 0.0418 µM; with OVCAR-8 ovarian, 0.0393 µM; in the test on SF-295 CNS it was 0.0286 µM; with TK-10 renal, 0.0838 µM; in the test on SNB-75 CNS, 0.0302 µM. For the same compound, the GI50 with SK-MEL-2 melanoma is 0.0593 µM; in the test on U251 CNS, 0.0376 µM; in the test on SK-MEL-5 melanoma it was 0.0658 µM; in the test with SR leukemia, 0.0383 µM. The TGI in the test with NCI/ADR-RES ovarian is 66.5 µM; in the test on MOLT-4 leukemia, greater than 100 µM; in the test on OVCAR-8 ovarian it was 7.66 µM; with SF-295 CNS it was 12.7 µM; in the test with TK-10 renal, 81 µM; in the test with SNB-75 CNS it was 12 µM. Moreover, the TGI in the test with SK-MEL-2 melanoma was greater than 39.9 µM; in the test with U251 CNS it was 12 µM; in the test on SK-MEL-5 melanoma, 0.497 µM; in the test with SR leukemia, greater than 43.6 µM.

`O=C(O)c1cc2ccccc2c2c1C(=O)c1ccccc1-2`: the TGI in the test on NCI/ADR-RES ovarian, in the test with MOLT-4 leukemia, in the test with OVCAR-8 ovarian, in the test on SF-295 CNS, in the test with TK-10 renal and in the test on SNB-75 CNS was greater than 100 µM in each case. Also, the TGI with SK-MEL-2 melanoma, in the test with U251 CNS, with SK-MEL-5 melanoma and with SR leukemia was greater than 100 µM throughout.

As to `CCN(c1cc(C#CCN2CCOCC2)cc(C(=O)NCc2c(C)cc(C)[nH]c2=O)c1C)C1CCC(N(C)CCOC)CC1` (configuration not stated), the GI50 in the test on NCI/ADR-RES ovarian is greater than 100 µM; in the test on MOLT-4 leukemia, greater than 100 µM; in the test on OVCAR-8 ovarian it was greater than 100 µM; in the test on SF-295 CNS, greater than 100 µM; with TK-10 renal, greater than 100 µM; in the test on SNB-75 CNS, 53.1 µM. Besides, the GI50 was greater than 100 µM in the test on SK-MEL-2 melanoma, greater than 100 µM in the test on U251 CNS, greater than 100 µM with SK-MEL-5 melanoma and 27 µM in the test with SR leukemia. In addition, the TGI in the test on NCI/ADR-RES ovarian, with MOLT-4 leukemia, in the test with OVCAR-8 ovarian, in the test on SF-295 CNS, in the test on TK-10 renal and in the test with SNB-75 CNS was greater than 100 µM in each case. Moreover, the TGI in the test with SK-MEL-2 melanoma, in the test on U251 CNS, in the test on SK-MEL-5 melanoma and with SR leukemia was greater than 100 µM in each case.

For the compound `CC(=O)c1nc2ccccc2n1CC(=O)c1cccc(Cl)c1`, the GI50 was 0.231 µM in the test on NCI/ADR-RES ovarian; 0.897 µM with MOLT-4 leukemia; 0.873 µM in the test on OVCAR-8 ovarian; 1.27 µM in the test with SF-295 CNS; 3.22 µM with TK-10 renal; 0.313 µM in the test on SNB-75 CNS. In addition, the GI50 with SK-MEL-2 melanoma was 0.505 µM; in the test on U251 CNS it was 0.534 µM; in the test with SK-MEL-5 melanoma, 0.175 µM; in the test with SR leukemia it was 0.121 µM. The TGI with MOLT-4 leukemia was 26.7 µM; in the test with OVCAR-8 ovarian, greater than 100 µM; in the test with SF-295 CNS it was greater than 23.2 µM; in the test on TK-10 renal, 99.7 µM; with SNB-75 CNS it was 59.8 µM; in the test with SK-MEL-2 melanoma, 98 µM. Also, the TGI with U251 CNS is greater than 100 µM; with SK-MEL-5 melanoma, 13.6 µM; with SR leukemia, 1.48 µM.
